{"source": "ChEMBL document CHEMBL5346964", "about": "“Discovery of LNP1892: A Precision Calcimimetic for the Treatment of Secondary Hyperparathyroidism” (J Med Chem, 2023)", "key": {"[1]": {"experiment": "Tmax in Sprague-Dawley rat at 100 mg/kg", "format": "ADME, organism-based", "settings": "in vivo"}, "[2]": {"experiment": "AUC in Sprague-Dawley rat at 10 mg/kg, po measured upto 24 hrs by LC/MS-MS analysis", "format": "ADME, organism-based", "design": "time < 24 hrs, dose 10 mg/kg, route po", "settings": "in vivo"}, "[3]": {"experiment": "Cmax in cynomolgus monkey at 5 mg/kg, po measured upto 24 hrs by LC/MS-MS analysis", "format": "ADME, organism-based, Macaca fascicularis", "design": "time < 24 hrs, dose 5 mg/kg, route po", "settings": "in vivo"}, "[4]": {"experiment": "Kinetic solubility of compound upto 500 uM at pH 2 measured after 16 hrs under shaking condition by UV-visible method", "format": "physicochemical", "settings": "buffer, read-out: Kinetic_solubility"}, "[5]": {"experiment": "Chemical stability of the compound at pH 2 measured after 0.5 to 4 hrs", "format": "physicochemical", "settings": "buffer, time 0.5-4 hrs"}, "[6]": {"experiment": "Drug excretion in BALB/c mouse assessed as drug recovery in urine at 10 mg/kg, po", "format": "ADME, organism-based", "settings": "read-out: Drug recovery"}, "[7]": {"experiment": "Cmax in rat at 25 mg/kg per day, po via gavage administered for 13 weeks", "format": "ADME, organism-based", "design": "time 13 weeks, dose 25 mg/kg, route po", "settings": "in vivo"}, "[8]": {"experiment": "Tmax in cynomolgus monkey at 5 mg/kg, po measured upto 24 hrs by LC/MS-MS analysis", "format": "ADME, organism-based, Macaca fascicularis", "settings": "in vivo"}, "[9]": {"experiment": "Ratio of drug concentration in brain to plasma in Sprague-Dawley rat at 10 mg/kg, po measured upto 24 hrs by LC-MS/MS analysis", "format": "ADME, organism-based", "settings": "read-out: BPR"}, "[10]": {"experiment": "Cmax in Sprague-Dawley rat at 10 mg/kg", "format": "ADME, organism-based", "design": "dose 10 mg/kg", "settings": "in vivo"}, "Cytochrome P450 2A6": {"target": "T1, Cytochrome P450 2A6 (Homo sapiens, UniProt P11509)", "T1 sequence (P11509 whole entry)": "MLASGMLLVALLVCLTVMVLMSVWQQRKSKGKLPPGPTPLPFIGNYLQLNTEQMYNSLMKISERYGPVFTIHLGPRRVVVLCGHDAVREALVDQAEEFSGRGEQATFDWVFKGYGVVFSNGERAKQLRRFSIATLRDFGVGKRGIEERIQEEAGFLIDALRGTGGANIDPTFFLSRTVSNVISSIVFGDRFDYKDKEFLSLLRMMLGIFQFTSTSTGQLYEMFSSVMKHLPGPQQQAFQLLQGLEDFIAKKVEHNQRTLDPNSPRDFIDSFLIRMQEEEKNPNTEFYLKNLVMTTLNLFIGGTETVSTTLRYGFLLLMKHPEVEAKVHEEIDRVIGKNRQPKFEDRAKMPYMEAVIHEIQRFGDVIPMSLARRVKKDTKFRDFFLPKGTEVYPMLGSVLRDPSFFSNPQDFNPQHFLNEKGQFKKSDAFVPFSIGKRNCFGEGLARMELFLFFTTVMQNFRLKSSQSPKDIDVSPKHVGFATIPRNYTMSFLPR", "experiment": "Inhibition of CYP2A6 in human liver microsomes preincubated for 5 mins followed by NADPH addition by LC-MS/MS analysis", "format": "ADME, Microsome"}, "[11]": {"experiment": "AUC(0 to t) in human at 25 mg/kg, po administered as single dose", "format": "ADME, organism-based", "design": "dose 25 mg/kg, route po", "settings": "in vivo"}, "[12]": {"experiment": "Volume of distribution at steady state in Sprague-Dawley rat at 1 mg/kg, iv measured upto 24 hrs by LC/MS-MS analysis", "format": "ADME, organism-based", "settings": "in vivo, read-out: Vdss"}, "[13]": {"experiment": "Tmax in Sprague-Dawley rat at 10 mg/kg, po administered as solution measured upto 24 hrs by LC-MS/MS analysis", "format": "ADME, organism-based", "settings": "in vivo"}, "[14]": {"experiment": "Stability in human liver microsomes assessed as parent compound remaining measured after 60 mins in presence of NADPH by LC-MS/MS analysis", "format": "ADME, Microsome", "settings": "read-out: Stability"}, "[15]": {"experiment": "Apparent permeability across basolateral to apical side in human Caco-2 cells at 5 uM measured after 30 to 120 mins by LC-MS/MS analysis", "format": "ADME, cell-based", "settings": "time 30-120 min"}, "CYP2C19": {"target": "CYP2C19 (Homo sapiens, UniProt P33261)", "sequence (P33261 whole entry)": "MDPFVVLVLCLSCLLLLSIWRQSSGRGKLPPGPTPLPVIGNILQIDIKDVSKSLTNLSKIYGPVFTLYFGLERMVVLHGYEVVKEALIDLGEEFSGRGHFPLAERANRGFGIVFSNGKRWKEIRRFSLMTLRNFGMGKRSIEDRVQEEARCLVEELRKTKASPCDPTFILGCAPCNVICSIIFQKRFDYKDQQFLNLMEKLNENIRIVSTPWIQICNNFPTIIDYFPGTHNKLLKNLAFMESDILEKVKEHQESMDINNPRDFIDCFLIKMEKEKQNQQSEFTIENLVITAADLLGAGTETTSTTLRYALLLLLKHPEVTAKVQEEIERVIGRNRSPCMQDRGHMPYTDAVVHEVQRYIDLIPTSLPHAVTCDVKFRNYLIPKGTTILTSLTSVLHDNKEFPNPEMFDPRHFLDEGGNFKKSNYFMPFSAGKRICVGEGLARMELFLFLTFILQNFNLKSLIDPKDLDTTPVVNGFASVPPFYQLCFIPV", "experiment": "Inhibition of CYP2C19 in human liver microsomes at 10 uM preincubated for 5 mins followed by NADPH addition by LC-MS/MS analysis relative to control", "format": "ADME, Microsome"}, "[16]": {"experiment": "Plasma protein binding in human", "format": "ADME", "settings": "read-out: PPB"}, "Rattus norvegicus [17]": {"system": "Rattus norvegicus", "experiment": "Acute effect on parathyroid hormone in overnight fasted adenine diet-induced chronic kidney disease Wistar rat model assessed as reduction in plasma PTH level at 10 mg/kg, po measured after 2 hrs of post treatment by sandwich ELISA analysis", "format": "functional", "design": "scale not given: the % may be the effect or the level left"}, "[18]": {"experiment": "Ratio of drug concentration in blood to plasma in rat", "format": "ADME, cell-free"}, "[19]": {"experiment": "AUC(0 to t) in rat at 50 mg/kg per day, po via gavage administered for 2 weeks", "format": "ADME, organism-based", "design": "dose 50 mg/kg, time 2 weeks, route po", "settings": "in vivo"}, "[20]": {"experiment": "Toxicity in mouse assessed as NOAEL", "settings": "in vivo"}, "[21]": {"experiment": "Kinetic solubility of compound in 0.1N HCL upto 500 uM measured after 16 hrs under shaking condition by UV-visible method", "format": "physicochemical", "settings": "read-out: Kinetic_solubility"}, "[22]": {"experiment": "Cmax in human at 10 mg/kg, po administered as single dose", "format": "ADME, organism-based", "design": "dose 10 mg/kg, route po", "settings": "in vivo"}, "[23]": {"experiment": "Oral bioavailability in Sprague-Dawley rat at 10 mg/kg measured upto 24 hrs by LC/MS-MS analysis", "format": "ADME, organism-based", "settings": "in vivo"}, "[24]": {"experiment": "Cmax in BALB/c mouse at 10 mg/kg, po measured upto 24 hrs by LC/MS-MS analysis", "format": "ADME, organism-based", "design": "dose 10 mg/kg, time < 24 hrs, route po", "settings": "in vivo"}, "[25]": {"experiment": "Kinetic solubility of compound upto 500 uM at pH 9 measured after 16 hrs under shaking condition by UV-visible method", "format": "physicochemical", "settings": "buffer, read-out: Kinetic_solubility"}, "[26]": {"experiment": "Metabolic stability in human liver cytosol measured upto 60 mins by LC-MS/MS method", "format": "ADME, subcellular", "settings": "read-out: Stability"}, "Rattus norvegicus [27]": {"system": "Rattus norvegicus", "experiment": "Acute effect on parathyroid hormone in overnight fasted adenine diet-induced chronic kidney disease Wistar rat model plasma assessed as reduction in plasma PTH level at 1 mg/kg, po measured after 4 hrs of post treatment by sandwich ELISA analysis", "format": "functional", "design": "scale not given: the % may be the effect or the level left"}, "[28]": {"experiment": "Toxicity in rat assessed as NOAEL", "settings": "in vivo"}, "[29]": {"experiment": "Protein binding in dog plasma incubated for 16 hrs under shaking condition by rapid equilibrium dialysis based LC-MS/MS method", "format": "ADME, cell-free, Canis lupus familiaris", "settings": "read-out: PPB"}, "hERG": {"target": "hERG (Homo sapiens, UniProt Q12809)", "sequence (Q12809 whole entry)": "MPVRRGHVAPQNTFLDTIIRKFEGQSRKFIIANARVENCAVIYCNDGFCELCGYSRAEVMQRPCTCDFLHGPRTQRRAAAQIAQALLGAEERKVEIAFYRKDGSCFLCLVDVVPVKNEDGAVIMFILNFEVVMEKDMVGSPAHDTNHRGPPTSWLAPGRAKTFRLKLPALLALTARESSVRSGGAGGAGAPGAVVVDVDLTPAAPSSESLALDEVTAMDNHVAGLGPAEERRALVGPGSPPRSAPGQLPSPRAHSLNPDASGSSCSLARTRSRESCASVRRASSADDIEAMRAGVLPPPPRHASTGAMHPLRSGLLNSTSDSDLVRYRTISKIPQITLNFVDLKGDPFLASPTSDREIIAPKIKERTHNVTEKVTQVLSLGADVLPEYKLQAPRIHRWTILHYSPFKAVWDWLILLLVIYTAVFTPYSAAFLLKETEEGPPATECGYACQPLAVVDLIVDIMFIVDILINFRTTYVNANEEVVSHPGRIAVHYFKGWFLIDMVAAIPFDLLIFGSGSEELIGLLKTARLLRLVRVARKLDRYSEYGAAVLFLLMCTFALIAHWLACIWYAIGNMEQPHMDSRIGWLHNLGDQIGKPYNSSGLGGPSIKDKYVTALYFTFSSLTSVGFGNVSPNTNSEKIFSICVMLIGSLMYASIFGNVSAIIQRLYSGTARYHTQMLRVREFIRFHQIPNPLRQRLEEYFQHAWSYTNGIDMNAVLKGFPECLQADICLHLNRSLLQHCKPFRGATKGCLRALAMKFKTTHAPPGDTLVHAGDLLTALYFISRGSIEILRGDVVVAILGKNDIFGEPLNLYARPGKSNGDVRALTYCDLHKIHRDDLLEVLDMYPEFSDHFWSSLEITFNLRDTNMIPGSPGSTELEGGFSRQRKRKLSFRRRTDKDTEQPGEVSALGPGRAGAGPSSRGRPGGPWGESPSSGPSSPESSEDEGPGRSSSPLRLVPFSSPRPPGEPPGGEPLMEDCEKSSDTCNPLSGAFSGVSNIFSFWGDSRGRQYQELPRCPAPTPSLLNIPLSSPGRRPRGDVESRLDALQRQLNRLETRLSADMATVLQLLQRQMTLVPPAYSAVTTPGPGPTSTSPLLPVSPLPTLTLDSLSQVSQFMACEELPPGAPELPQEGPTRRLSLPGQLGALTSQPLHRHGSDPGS", "experiment": "Inhibition of hERG at 10 uM relative to control", "format": "toxicity"}, "[30]": {"experiment": "Drug excretion in BALB/c mouse assessed as drug recovery in feces at 10 mg/kg, po", "format": "ADME, organism-based", "settings": "faeces, read-out: Drug recovery"}, "[31]": {"experiment": "Effect on parathyroid hormone in overnight fasted Sprague-Dawley rat assessed as reduction in plasma PTH level at 10 mg/kg, po measured after 2 hrs of post treatment by sandwich ELISA analysis", "format": "functional", "design": "scale not given: the % may be the effect or the level left"}, "[32]": {"experiment": "Genotoxicity in Salmonella typhimurium by Ames test", "format": "toxicity", "settings": "salmonella enterica subsp. enterica serovar typhimurium"}, "[33]": {"experiment": "Metabolic stability in human liver S9 fraction measured upto 60 mins by LC-MS/MS method", "format": "ADME, subcellular", "settings": "read-out: Stability"}, "[34]": {"experiment": "Toxicity in monkey assessed as NOAEL", "design": "species or system Macaca mulatta", "settings": "rhesus monkey, in vivo"}, "[35]": {"experiment": "Effect on parathyroid hormone in overnight fasted Sprague-Dawley rat assessed as reduction in plasma PTH level at 3 mg/kg, po measured after 2 hrs of post treatment by sandwich ELISA analysis", "format": "functional", "design": "scale not given: the % may be the effect or the level left"}, "[36]": {"experiment": "Chemical stability of the compound at pH 4 measured after 0.5 to 4 hrs", "format": "physicochemical", "settings": "buffer, time 0.5-4 hrs"}, "[37]": {"experiment": "Kinetic solubility of compound in FeSSIF upto 500 uM measured after 16 hrs under shaking condition by UV-visible method", "format": "physicochemical", "settings": "read-out: Kinetic_solubility"}, "[38]": {"experiment": "Oral bioavailability in BALB/c mouse at 10 mg/kg measured upto 24 hrs by LC/MS-MS analysis", "format": "ADME, organism-based", "settings": "in vivo"}}}
{"smiles": "Cc1ccc([C@@H]2C[C@H](CN[C@H](C)c3cccc4ccccc34)Oc3ccccc32)cc1C(=O)O.Cl", "values": [{"measurement": "Tmax", "setting": "[1]", "value": 1, "unit": "h"}, {"measurement": "AUC at 24 h", "setting": "[2]", "value": 71, "unit": "µM·h"}, {"measurement": "Cmax", "setting": "[3]", "value": 0.4, "unit": "µM"}, {"measurement": "solubility kinetic at 16 h, 500 µM", "setting": "[4]", "value": "> 300", "unit": "µM"}, {"measurement": "Stability", "setting": "[5]", "value": "Stable"}, {"measurement": "dose excreted", "setting": "[6]", "value": "< 1", "unit": "%"}, {"measurement": "Cmax", "setting": "[7]", "value": 9660, "unit": "ng/mL"}, {"measurement": "Tmax", "setting": "[8]", "value": 1.7, "unit": "h"}, {"measurement": "Kp at 24 h", "setting": "[9]", "value": 0.2}, {"measurement": "Cmax", "setting": "[10]", "value": 4, "unit": "µM"}, {"measurement": "IC50", "setting": "Cytochrome P450 2A6", "value": 41, "unit": "µM"}, {"measurement": "AUC(0-t)", "setting": "[11]", "value": 2930, "unit": "ng·h/mL"}, {"measurement": "Vd", "setting": "[12]", "value": 1, "unit": "L/kg"}, {"measurement": "Tmax", "setting": "[13]", "value": 0.6, "unit": "h"}, {"measurement": "remaining at 1 h", "setting": "[14]", "value": "~30", "unit": "%"}, {"measurement": "Papp B→A at 5 µM", "setting": "[15]", "value": 6.3, "unit": "×10⁻⁶ cm/s"}, {"measurement": "inhibition at 10 µM", "setting": "CYP2C19", "value": 7, "unit": "%"}, {"measurement": "fraction unbound", "setting": "[16]", "value": "< 0.01"}, {"measurement": "Activity", "setting": "Rattus norvegicus [17]", "value": 89, "unit": "%"}, {"measurement": "blood plasma ratio", "setting": "[18]", "value": 0.64}, {"measurement": "AUC(0-t) at 336 h", "setting": "[19]", "value": 108000, "unit": "ng·h/mL"}, {"measurement": "NOAEL", "setting": "[20]", "value": 50, "unit": "mg/kg/day"}, {"measurement": "solubility kinetic at 16 h, 500 µM", "setting": "[21]", "value": "> 200", "unit": "µM"}, {"measurement": "Cmax", "setting": "[22]", "value": 202, "unit": "ng/mL"}, {"measurement": "bioavailability", "setting": "[23]", "value": 99, "unit": "%"}, {"measurement": "Cmax", "setting": "[24]", "value": 31, "unit": "µM"}, {"measurement": "solubility kinetic at 16 h, 500 µM", "setting": "[25]", "value": "> 200", "unit": "µM"}, {"measurement": "remaining at 1 h", "setting": "[26]", "value": "> 80", "unit": "%"}, {"measurement": "Activity", "setting": "Rattus norvegicus [27]", "value": 84, "unit": "%"}, {"measurement": "NOAEL", "setting": "[28]", "value": 25, "unit": "mg/kg/day"}, {"measurement": "fraction unbound at 16 h", "setting": "[29]", "value": "< 0.01"}, {"measurement": "inhibition at 10 µM", "setting": "hERG", "value": 4, "unit": "%"}, {"measurement": "dose excreted", "setting": "[30]", "value": 23, "unit": "%"}, {"measurement": "Activity", "setting": "[31]", "value": 99, "unit": "%"}, {"measurement": "Activity", "setting": "[32]", "value": "Non-Toxic"}, {"measurement": "remaining at 1 h", "setting": "[33]", "value": "> 80", "unit": "%"}, {"measurement": "NOAEL", "setting": "[34]", "value": 50, "unit": "mg/kg/day"}, {"measurement": "Activity", "setting": "[35]", "value": 100, "unit": "%"}, {"measurement": "Stability", "setting": "[36]", "value": "Stable"}, {"measurement": "solubility kinetic at 16 h, 500 µM", "setting": "[37]", "value": "> 300", "unit": "µM"}, {"measurement": "bioavailability", "setting": "[38]", "value": 100, "unit": "%"}]}
